Drawing on patent US20230142338A1, “THIOPHENYL DERIVATIVES USEFUL FOR MODULATING NUCLEIC ACID SPLICING” (REMIX THERAPEUTICS INC., priority 2020, published 2023), this text covers IC50 and AC50 for 16 compounds.

pIC50: −log10 of the molar value. Bounds are passed on as bounds.

Holding throughout (assay type): cell-based
For one test, the system named is SMN2 CJ mRNA. Briefly: Gene panel canonical junction qPCR assay: SMN2. Conditions: Table 3, concentration having 50% response in CJ decrease, read-out: SMN2 IC50 (decrease in CJ mRNA levels). In short, it runs like this: (§1)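 A673 or K562 cells were treated 24 h at 37 °C with an 11-point 3-fold dilution series (top 10 uM; ≤0.25% DMSO). Canonical-junction mRNA was then measured in lysates by one-step RT-qPCR. Values were normalized to a housekeeping gene (GAPDH, GUSB or PPIA) and to the DMSO control via 2^(−ΔΔCt).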

Another test relates to HTT AJ mRNA. Briefly: Splicing assay (RT-qPCR): increase in HTT alternative junction (AJ) mRNA. Conditions: A673 or K562 cells, 24 hours treatment; concentration having 50% response in AJ mRNA increase. In short, it runs like this: (§2)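 A673 (DMEM/10% FBS) or K562 (IMDM/10% FBS) cells treated 24 h at 37 °C with 11-point 3-fold dilutions, top final 10 uM, DMSO ≤0.25%. Lysates taken directly to RT-qPCR for HTT CJ and AJ isoforms, normalized to GAPDH, GUSB or PPIA. ΔΔCt vs DMSO control converted to RQ (2^−ΔΔCt), then percentage response.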

The test system of test [1] is HTT CJ mRNA. Briefly: Splicing assay (RT-qPCR): decrease in HTT canonical junction (CJ) mRNA. Conditions: A673 or K562 cells, 24 hours treatment; concentration having 50% response in CJ mRNA decrease. In short, it runs like this:
as §2

In another test the test system is Target C CJ mRNA. Briefly: Gene panel canonical junction qPCR assay: Target C. The note with it: Table 3, concentration having 50% response in CJ decrease, read-out: Target C IC50 (decrease in CJ mRNA levels). In short, it runs like this:
as §1

Test [2] relates to HTT CJ mRNA. Briefly: Gene panel canonical junction qPCR assay: HTT. Conditions: Table 3, concentration having 50% response in CJ decrease, read-out: HTT IC50 (decrease in CJ mRNA levels). In short, it runs like this:
as §1

`Cc1cn2cc(NC(=O)c3sc(C4CCNCC4)cc3F)cc(C)c2n1` [Compound 180, N-[2,8-dimethylimidazo[1,2-a]pyridin-6-yl]-3-fluoro-5-(piperidin-4-yl)thiophene-2-carboxamide]: the pIC50 in the test on SMN2 CJ mRNA is greater than 7.00; in the test with Target C CJ mRNA, 5.00 to 6.00; with HTT CJ mRNA [2] it was 6.00 to 7.00. For the same compound, the AC50 in the test with HTT AJ mRNA was in the range of 1000 to 10000 nM; in the test with HTT CJ mRNA [1] it was 100 to 1000 nM.
On to `Cc1cn2cc(NC(=O)c3sc(C4CCNCC4)cc3F)cc(Cl)c2n1` [Compound 181, N-[8-chloro-2-methylimidazo[1,2-a]pyridin-6-yl]-3-fluoro-5-(piperidin-4-yl)thiophene-2-carboxamide], for which the pIC50 in the test on SMN2 CJ mRNA was greater than 7.00; with Target C CJ mRNA, 5.00 to 6.00; with HTT CJ mRNA [2] it was 6.00 to 7.00. Further, the AC50 with HTT AJ mRNA and with HTT CJ mRNA [1] was 100 to 1000 nM throughout.
For `Cn1cc2ccc(NC(=O)c3sc(C4CCNCC4)cc3F)cc2n1` [Compound 182, 3-fluoro-N-(2-methylindazol-6-yl)-5-(piperidin-4-yl)thiophene-2-carboxamide], the pIC50 with SMN2 CJ mRNA, with Target C CJ mRNA and in the test with HTT CJ mRNA [2] was less than 8.00 each time. Besides, the AC50 with HTT AJ mRNA and with HTT CJ mRNA [1] was greater than 10000 nM in each case.
On to `Cn1cc2c(F)cc(NC(=O)c3sc(C4CCNCC4)cc3F)cc2n1` [Compound 183, 3-fluoro-N-(4-fluoro-2-methylindazol-6-yl)-5-(piperidin-4-yl)thiophene-2-carboxamide], for which the pIC50 in the test on SMN2 CJ mRNA, with Target C CJ mRNA and in the test on HTT CJ mRNA [2] was less than 8.00 in each case. The AC50 in the test on HTT AJ mRNA and in the test on HTT CJ mRNA [1] was greater than 10000 nM each time.
For the compound `Cc1nc2c(F)cc(NC(=O)c3sc(C4CCNCC4)cc3F)cc2o1` [Compound 184, 3-fluoro-N-(4-fluoro-2-methyl-1,3-benzoxazol-6-yl)-5-(piperidin-4-yl)thiophene-2-carboxamide], the pIC50 with SMN2 CJ mRNA is greater than 7.00; with Target C CJ mRNA it was 6.00 to 7.00; in the test on HTT CJ mRNA [2], 6.00 to 7.00. Moreover, the AC50 in the test on HTT AJ mRNA and with HTT CJ mRNA [1] was 100 to 1000 nM throughout.
With `Cc1nc2c(F)cc(NC(=O)c3sc(C4CCNCC4)cc3F)cc2s1` [Compound 185, 3-fluoro-N-(4-fluoro-2-methyl-1,3-benzothiazol-6-yl)-5-(piperidin-4-yl)-thiophene-2-carboxamide], the figures for the pIC50 in the test with SMN2 CJ mRNA, in the test with Target C CJ mRNA and with HTT CJ mRNA [2] were greater than 7.00, 5.00 to 6.00 and 6.00 to 7.00, respectively. Also, the AC50 fell in the range of 1000 to 10000 nM in the test on HTT AJ mRNA and 100 to 1000 nM in the test on HTT CJ mRNA [1].
`Cc1cn2cc(NC(=O)c3cc(Cl)c(N4CCNC(C)C4)s3)cc(F)c2n1` (centres unmarked) [Compound 187]: the negative-log IC50 (pIC50) in the test on SMN2 CJ mRNA, in the test on Target C CJ mRNA and with HTT CJ mRNA [2] was less than 8.00 throughout. Further, the AC50 in the test with HTT AJ mRNA and with HTT CJ mRNA [1] was greater than 10000 nM throughout.
`Cc1cn2cc(NC(=O)c3cc(F)c(C4CCNCC4)s3)cc(F)c2n1` [Compound 188, 4-fluoro-N-[8-fluoro-2-methylimidazo[1,2-a]pyridin-6-yl]-5-(piperidin-4-yl)thiophene-2-carboxamide]: the pIC50 was 6.00 to 7.00 in the test on SMN2 CJ mRNA, less than 8.00 in the test with Target C CJ mRNA and 6.00 to 7.00 in the test on HTT CJ mRNA [2]. Moreover, the AC50 in the test with HTT AJ mRNA was greater than 10000 nM; in the test with HTT CJ mRNA [1], 100 to 1000 nM.
In the case of `COc1cc(N2CCNCC2=O)sc1C(=O)Nc1cc(F)c2nc(C)cn2c1` [Compound 189, N-[8-fluoro-2-methylimidazo[1,2-a]pyridin-6-yl]-3-methoxy-5-(2-oxopiperazin-1-yl)thiophene-2-carboxamide], the pIC50 in the test with SMN2 CJ mRNA, with Target C CJ mRNA and in the test with HTT CJ mRNA [2] was less than 8.00 each time. In addition, the AC50 in the test on HTT AJ mRNA and with HTT CJ mRNA [1] was greater than 10000 nM in each case.
Regarding `Cc1cn2cc(NC(=O)c3sc(C4CCNCC4)cc3Cl)cc(F)c2n1` [Compound 190, 3-chloro-N-[8-fluoro-2-methylimidazo[1,2-a]pyridin-6-yl]-5-(piperidin-4-yl) thiophene-2-carboxamide], the pIC50 in the test with SMN2 CJ mRNA is greater than 7.00; with Target C CJ mRNA, 5.00 to 6.00; with HTT CJ mRNA [2] it was greater than 7.00. For the same compound, the AC50 was 100 to 1000 nM in the test with HTT AJ mRNA and less than 100 nM in the test with HTT CJ mRNA [1].
Regarding `Cc1cn2nc(NC(=O)c3sc(C4CCNCC4)cc3F)cc2c(C)n1` [Compound 191, N-[4,6-dimethylpyrazolo[1,5-a]pyrazin-2-yl]-3-fluoro-5-(piperidin-4-yl)thiophene-2-carboxamide], the figures for the pIC50 in the test with SMN2 CJ mRNA, in the test with Target C CJ mRNA and with HTT CJ mRNA [2] were 6.00 to 7.00, 5.00 to 6.00 and 5.00 to 6.00, respectively. For the same compound, the AC50 with HTT AJ mRNA and in the test with HTT CJ mRNA [1] was 1000 to 10000 nM in each case.
As to `Cc1cn2nc(NC(=O)c3sc(C4CCNCC4)cc3F)nc2c(C)n1` [Compound 192, N-[6,8-dimethyl-[1,2,4]triazolo[1,5-a]pyrazin-2-yl]-3-fluoro-5-(piperidin-4-yl)thiophene-2-carboxamide], the pIC50 in the test with SMN2 CJ mRNA, with Target C CJ mRNA and in the test on HTT CJ mRNA [2] was less than 8.00 each time. In addition, the AC50 in the test on HTT AJ mRNA and in the test with HTT CJ mRNA [1] was greater than 10000 nM in each case.
Consider `Cc1cn2cc(NC(=O)c3cc(Cl)c(C4CCNCC4)s3)cc(F)c2n1` [Compound 193, 4-chloro-N-[8-fluoro-2-methylimidazo[1,2-a]pyridin-6-yl]-5-(piperidin-4-yl) thiophene-2-carboxamide], for which the pIC50 with SMN2 CJ mRNA is 5.00 to 6.00; in the test on Target C CJ mRNA, less than 8.00; in the test with HTT CJ mRNA [2], less than 8.00. Also, the AC50 in the test on HTT AJ mRNA and in the test on HTT CJ mRNA [1] was greater than 10000 nM each time.
Turning to `Cc1cn2cc(NC(=O)c3sc(C4CCNCC4)cc3F)nc2c(C)n1` [Compound 195, N-[6,8-dimethylimidazo[1,2-a]pyrazin-2-yl]-3-fluoro-5-(piperidin-4-yl)thiophene-2-carboxamide], the figures for the pIC50 in the test on SMN2 CJ mRNA, in the test on Target C CJ mRNA and with HTT CJ mRNA [2] were greater than 7.00, less than 8.00 and 6.00 to 7.00, respectively. Besides, the figures for the concentration at half-maximal activity (AC50) in the test on HTT AJ mRNA and in the test with HTT CJ mRNA [1] were 1000 to 10000 nM and 100 to 1000 nM, respectively.
Turning to `Cc1cn2cc(NC(=O)c3sc([C@@H]4CCN[C@H](C)C4)cc3F)cc(C(F)(F)F)c2n1` [Compound 196, 3-fluoro-N-[2-methyl-8-(trifluoromethyl)imidazo[1,2-a]pyridin-6-yl]-5-[(cis-)-2-methylpiperidin-4-yl]thiophene-2-carboxamide], the pIC50 in the test with SMN2 CJ mRNA was 6.00 to 7.00; in the test with Target C CJ mRNA, less than 8.00; with HTT CJ mRNA [2], 5.00 to 6.00. Further, the AC50 in the test with HTT AJ mRNA is greater than 10000 nM; in the test with HTT CJ mRNA [1], 1000 to 10000 nM.
Turning to `Cc1cn2cc(NC(=O)c3sc([C@H]4CCN[C@H](C)C4)cc3F)cc(C(F)(F)F)c2n1` [Compound 197, 3-fluoro-N-[2-methyl-8-(trifluoromethyl)imidazo[1,2-a]pyridin-6-yl]-5-[(trans-)-2-methylpiperidin-4-yl]thiophene-2-carboxamide], the pIC50 with SMN2 CJ mRNA was 6.00 to 7.00; in the test on Target C CJ mRNA, less than 8.00; in the test on HTT CJ mRNA [2] it was 5.00 to 6.00. For the same compound, the AC50 with HTT AJ mRNA and in the test with HTT CJ mRNA [1] was 1000 to 10000 nM each time.
